Assay results taken from US20110028447A1, “INDAZOLE DERIVATIVES” (Pfizer Inc., priority 2008, published 2011).

The molecules below were run against human CB1 receptor (Homo sapiens, UniProt P21554) (assay: Human CB1 receptor binding, [3H] CP-55,940 displacement on HEK cell membranes). Details: CB1 Ki.
Sequence of human CB1 receptor (P21554 whole entry): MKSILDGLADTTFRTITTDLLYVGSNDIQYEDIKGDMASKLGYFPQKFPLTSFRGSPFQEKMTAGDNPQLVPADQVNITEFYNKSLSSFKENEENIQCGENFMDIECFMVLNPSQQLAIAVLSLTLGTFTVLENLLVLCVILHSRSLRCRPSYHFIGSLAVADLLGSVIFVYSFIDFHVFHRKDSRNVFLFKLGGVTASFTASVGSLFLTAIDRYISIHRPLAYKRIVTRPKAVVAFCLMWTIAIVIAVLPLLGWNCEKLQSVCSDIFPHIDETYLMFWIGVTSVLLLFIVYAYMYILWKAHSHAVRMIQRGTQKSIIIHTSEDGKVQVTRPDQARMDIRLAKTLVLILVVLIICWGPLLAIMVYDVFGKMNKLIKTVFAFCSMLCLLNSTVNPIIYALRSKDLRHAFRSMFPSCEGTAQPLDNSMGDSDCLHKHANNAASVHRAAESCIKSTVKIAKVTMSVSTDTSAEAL
Design: expressed in transfected cells; host or cells: HEK cells, doxycycline-induced; membrane preparation
Method: The Human CB1 receptor binding affinity and other biological activities of the compounds of this invention are determined by the following procedures. Membrane preparation: Human Embryonic Kidney (HEK) Cells expressing the human CB1 receptor under transcriptional regulation of a tetracycline inducible promoter were grown in Dulbecco's Modified Essential Medium with sodium pyruvate (Invitrogen, Carlsbad, Calif.) containing 10% tetracycline free fetal bovine serum (Clonetech, Mountain View, Calif.) 100 μg/ml hygromycin (Calbiochem, San Diego, Calif.), 5 μg/ml blasticidin (Invitrogen). CB1 receptor expression was induced by addition of 1 μg/ml doxycycline (Calbiochem) and incubation for an additional 24 hours. Cells were released from flasks using Cell Dissociation Buffer (Invitrogen). Cells were pelleted by centrifugation at 500×G for 5 minutes. Membranes were prepared by resuspending cells in ice cold TEE Buffer (25 mM Tris pH 7.4, 5 mM EDTA, 5 mM EGTA, Complete Protease Inhibitor (Roche, Basel, Switzerland)). Cells were lysed with 12 strokes of a dounce homogenizer. Unlysed cells were pelleted by centrifugation at 500×G for 5 minutes. Membranes were pelleted by centrifugation at 25,000×G for 30 minutes. Membranes were resuspended in TEE, dounced 12 strokes, and pelleted a second time at 25,000×G for 30 minutes. Membrane pellet was resuspended in 50 mM Tris pH 7.4, 100 mM NaCl, 3 mM MgCl2, 0.2 mM EGTA, Complete Protease Inhibitor (Roche). Protein concentration was determined using the Micro-BCA Protein Assay Kit (Pierce, Rockford, Ill.) using BSA as a standard. Membranes were quick frozen and stored at −80 degrees Celsius until use.
Binding experiments: 50 μl of test compound was incubated with 50 μl of [^3H] CP-55,940 (Perkin Elmer, Boston, Mass.) (final concentration=[…]) and 150 μl of membrane homogenate (1 μg/well) in polypropylene 96-well plates (Corning, Acton, Mass.). Final reaction conditions were 50 mM Tris pH 7.4, 100 mM NaCl, 3 mM MgCl2, 0.2 mM EGTA, 0.04% BSA. Nonspecific binding was determined by incubation with 50 μM WIN-55, 212-2 (Tocris, Ellisville, Mo.). After incubation at room temperature for 60 minutes reactions were harvested by vacuum filtration through Unifilter GF/B-96 filters (Perkin Elmer) that had been presoaked in assay buffer containing 0.5% BSA (Sigma, St. Louis, Mo.) using a FilterMate Plate Harvester (Perkin Elmer). Filters were rinsed 4 times with 50 mM Tris pH 7.4, 0.025% Tween-20 and dried at 50 degrees Celsius for at least 30 minutes. 40 μl of Microscint-20 (Perkin Elmer) was added per well, and plates were counted using a Top-Count Microplate Scintillation Counter (Perkin Elmer). Binding data were analyzed and EC50 and K, values calculated using Graph Pad Prism 4.0 Software.
In the case of `CC(C)(C)[C@H](NC(=O)c1nn(Cc2ccc(C#N)cc2F)c2c(F)cccc12)C(=O)NCC(N)=O` [Example 369], the Ki is reported as 0.0281 µM.
In the case of `CC(C)(C)[C@H](NC(=O)c1nn(Cc2ccc(C#N)cc2)c2ccc(Cl)cc12)C(N)=O` [Example 440], the Ki is reported as 0.104 µM.
Molecule `CC(C)(C)[C@H](NC(=O)c1nn(Cc2ccc(C#N)cc2)c2cc(F)ccc12)C(=O)N[C@@H]1CNC(=O)C1` [Example 458] has a Ki of 0.12 µM.
With `CC(C)(C)[C@H](NC(=O)c1nn(Cc2ccc(C#N)cc2)c2ccccc12)C(=O)N[C@H]1CNC(=O)C1` [Example 452] the Ki was over 0.4 µM.
Molecule `CC(C)(C)[C@H](NC(=O)c1nn(Cc2ccc(C#N)cc2)c2c(F)cccc12)C(=O)NCC1CCC(=O)N1` (some centres unmarked) [Example 402] has a Ki of 0.277 µM.
In the case of `CC(C)(C)[C@H](NC(=O)c1nn(Cc2ccc(C#N)cc2)c2ccc(Cl)cc12)C(=O)NC[C@H](O)CO` [Example 441], the Ki is reported as over 0.4 µM.
For `CC(C)(C)[C@H](NC(=O)c1nn(Cc2ccc(F)cc2)c2ccccc12)C(=O)N1CCS(=O)(=O)CC1` [Example 269], the Ki was 0.0238 µM.
`CC(C)(C)[C@H](NC(=O)c1nn(Cc2ccc(C(F)(F)F)cc2)c2ccccc12)C(=O)NC[C@H](O)CO` [Example 256] was tested, and the Ki was 0.0986 µM.
`CC(C)(C)[C@H](NC(=O)c1nn(Cc2ccc(F)cc2)c2ccc(Cl)cc12)C(=O)NCCC(N)=O` [Example 477] was tested, and the Ki was 0.0283 µM.
With `CC(C)(C)[C@H](NC(=O)c1nn(Cc2ccc(C#N)cc2)c2cc(F)ccc12)C(=O)N1CC(C(N)=O)C1` [Example 353] the Ki was 0.0728 µM.
For `CC(C)(C)[C@H](NC(=O)c1nn(Cc2ccc(C#N)cc2)c2cc(F)ccc12)C(=O)NCC(N)=O` [Example 301], the Ki was 0.0703 µM.
Molecule `CC(C)(C)[C@H](NC(=O)c1nn(Cc2ccc(F)cc2)c2ccccc12)C(=O)NCC(=N)N` [Example 291] has a Ki of 0.0012 µM.
For `CC(C)(C)[C@H](NC(=O)c1nn(Cc2ccc(F)cc2)c2ccc(Cl)cc12)C(=O)NC[C@H](O)CO` [Example 431], the Ki was 0.0136 µM.
`CC(C)(C)[C@H](NC(=O)c1nn(Cc2ccc(C#N)cc2F)c2c(F)cccc12)C(=O)NC[C@H](O)CO` [Example 367] gave a Ki of 0.0414 µM.
For `CC(C)(C)[C@H](NC(=O)c1nn(Cc2ccc(C#N)cc2)c2ccccc12)C(=O)NC[C@H]1C[C@@H]1CO` [Example 485], the Ki was 0.152 µM.
`CC(C)(C)[C@H](NC(=O)c1nn(Cc2ccc(F)cc2)c2ccc(Cl)cc12)C(N)=O` [Example 429] showed a Ki of 0.00044 µM.
In the case of `CC(C)(C)[C@H](NC(=O)c1nn(Cc2ccc(F)cc2)c2ccccc12)C(=O)NCC(=O)O` [Example 9, N-{[1-(4-fluorobenzyl)-1H-indazol-3-yl]carbonyl}-3-methyl-L-valylglycine], the Ki is reported as 0.0842 µM.
Work on `CC(C)(C)[C@H](NC(=O)c1nn(Cc2ccc(C#N)cc2)c2ccccc12)C(=O)N[C@H]1C[C@@H](C(N)=O)C1` [Example 396] yielded a Ki of 0.239 µM.
`CC(C)(C)[C@H](NC(=O)c1nn(Cc2ccc(C#N)cc2)c2ccccc12)C(=O)N1C[C@@H](O)[C@@H](O)C1` [Example 285] showed a Ki of 0.0279 µM.
`Cn1ccc(NC(=O)[C@@H](NC(=O)c2nn(Cc3ccc(F)cc3)c3ccccc23)C(C)(C)C)n1` [Example 515] showed a Ki of 0.0375 µM.
Work on `CC(C)(C)[C@H](NC(=O)c1nn(Cc2ccc(C#N)cc2)c2c(F)cccc12)C(=O)NCCS(N)(=O)=O` [Example 222] yielded a Ki of 0.0214 µM.
`CC(C)(C)[C@H](NC(=O)c1nn(Cc2ccc(C#N)cc2)c2ccccc12)C(=O)NCC1CCC(=O)N1` (some centres unmarked) [Example 401] was tested, and the Ki was over 0.4 µM.
Molecule `COc1cc(C#N)ccc1Cn1nc(C(=O)N[C@H](C(=O)N[C@H]2C[C@@H](C(N)=O)C2)C(C)(C)C)c2ccccc21` [Example 399] has a Ki of over 0.4 µM.
In the case of `CC(C)(C)[C@H](NC(=O)c1nn(Cc2ccc(F)cc2)c2ccc(Cl)cc12)C(=O)NCCO` [Example 428], the Ki is reported as 0.00089 µM.
`CC(C)(C)[C@H](NC(=O)c1nn(Cc2ccc(C#N)cc2F)c2c(F)cccc12)C(=O)NCCS(N)(=O)=O` [Example 371] was tested, and the Ki was 0.0548 µM.
With `CC(C)(C)[C@H](NC(=O)c1nn(Cc2ccc(F)cc2)c2ccc(Cl)cc12)C(=O)NC[C@@H](O)CO` [Example 434] the Ki was 0.0551 µM.
Molecule `CC(C)(C)[C@H](NC(=O)c1nn(Cc2ccc(C#N)cc2F)c2c(F)cccc12)C(=O)NC[C@@H](O)CO` [Example 366] has a Ki of 0.241 µM.
In the case of `CC(C)(C)[C@H](NC(=O)c1nn(Cc2cccc3ccccc23)c2ccccc12)C(=O)NC[C@H](O)CO` [Example 276], the Ki is reported as over 0.4 µM.

Same assay, conditions: read-out: CB1 Ki
`CC(C)(C)[C@H](NC(=O)c1nn(Cc2ccc(F)cc2)c2ccccc12)C(=O)N1CCC(O)(CNC(=O)C2CC2)CC1` [Example 229] gave a Ki of 0.0313 µM.
Work on `CC(C)(C)[C@H](NC(=O)c1nn(Cc2ccc(C#N)cc2)c2ccccc12)C(=O)NCCN1CCNC(=O)C1` [Example 465] yielded a Ki of over 0.4 µM.
Work on `CC(C)(C)[C@H](NC(=O)c1nn(Cc2ccc(F)cc2)c2ccccc12)C(=O)N1C[C@@H]2C[C@H]1CN2C(N)=O` [Example 219] yielded a Ki of over 0.4 µM.
`CC(C)(C)[C@H](NC(=O)c1nn(Cc2ccc(F)cc2)c2ccccc12)C(=O)N1C[C@@H]2C[C@H]1CN2CC(O)CO` (some centres unmarked) [Example 232] was tested, and the Ki was 0.0542 µM.
`CCOC(=O)C1(F)CCN(C(=O)[C@@H](NC(=O)c2nn(Cc3ccc(F)cc3)c3ccccc23)C(C)(C)C)CC1` [Example 342] was tested, and the Ki was 0.0205 µM.
`CC(C)NC(=O)OC1CCCN(C(=O)[C@@H](NC(=O)c2nn(Cc3ccc(F)cc3)c3ccccc23)C(C)(C)C)C1` (some centres unmarked) [Example 318] showed a Ki of 0.0687 µM.
In the case of `CC(C)(C)[C@H](NC(=O)c1nn(Cc2ccc(F)cc2)c2ccccc12)C(=O)NCC(=O)N1C[C@@H](O)[C@H](O)C1` [Example 378], the Ki is reported as 0.158 µM.
`CC(C)(C)[C@H](NC(=O)c1nn(Cc2ccc(F)cc2)c2ccccc12)C(=O)N1CCC[C@H]1C(=O)NC[C@H](O)CO` [Example 294] was tested, and the Ki was over 0.4 µM.
`CCNC(=O)OC1CCCN(C(=O)[C@@H](NC(=O)c2nn(Cc3ccc(F)cc3)c3ccccc23)C(C)(C)C)C1` (some centres unmarked) [Example 317] gave a Ki of 0.0311 µM.
For `CC(C)(C)[C@H](NC(=O)c1nn(Cc2ccc(F)cc2)c2ccccc12)C(=O)N1CCC(F)(C(N)=O)CC1` [Example 343], the Ki was 0.216 µM.
For `CC(C)(C)[C@H](NC(=O)c1nn(Cc2ccc(F)cc2)c2ccccc12)C(=O)NCCN1CCNC(=O)C1` [Example 467], the Ki was 0.0538 µM.
`CC(C)(C)[C@H](NC(=O)c1nn(Cc2ccc(F)cc2)c2ccccc12)C(=O)NCC(=O)NCC(=O)O` [Example 495] gave a Ki of 0.13 µM.
In the case of `CN1CC(CNC(=O)[C@@H](NC(=O)c2nn(Cc3ccc(C#N)cc3)c3c(F)cccc23)C(C)(C)C)CC1=O` (some centres unmarked) [Example 409], the Ki is reported as 0.073 µM.
For `Cc1nnc(CNC(=O)[C@@H](NC(=O)c2nn(Cc3ccc(C#N)cc3F)c3c(F)c(F)ccc23)C(C)(C)C)o1` [Example 364], the Ki was 0.0209 µM.
Work on `COc1cc(CNC(=O)[C@@H](NC(=O)c2nn(Cc3ccc(C#N)cc3)c3cc(F)ccc23)C(C)(C)C)on1` [Example 313] yielded a Ki of 0.273 µM.
`CCOC(=O)c1ccc(Cn2nc(C(=O)N[C@H](C(=O)NCCO)C(C)(C)C)c3ccccc32)c(F)c1` [Example 484] gave a Ki of over 0.4 µM.
`CC(C)(C)[C@H](NC(=O)c1nn(Cc2ccc(F)cc2)c2ccccc12)C(=O)N[C@H](CC(N)=O)C(N)=O` [Example 290] showed a Ki of 0.092 µM.
`CN(CCO)C[C@@H](O)CNC(=O)[C@@H](NC(=O)c1nn(Cc2ccc(F)cc2)c2ccccc12)C(C)(C)C` [Example 507] gave a Ki of 0.212 µM.
For `CCOC(=O)[C@H]1C[C@@H](NC(=O)[C@@H](NC(=O)c2nn(Cc3ccc(C#N)cc3)c3ccccc23)C(C)(C)C)C1` [Example 380], the Ki was over 0.4 µM.
For `CC(C)(C)[C@H](NC(=O)c1nn(Cc2ccc(F)cc2)c2ccccc12)C(=O)N1C[C@@H]2C[C@H]1CN2C(=O)CCC(N)=O` [Example 227], the Ki was over 0.4 µM.
For `CC(C)(C)[C@H](NC(=O)c1nn(Cc2ccc(F)cc2)c2ccc(Cl)cc12)C(=O)NCCN1CCNC(=O)C1` [Example 475], the Ki was 0.141 µM.
Work on `CC(C)(C)[C@H](NC(=O)c1nn(Cc2ccc(C#N)cc2)c2c(F)cccc12)C(=O)N[C@H]1CCc2ccccc21` [Example 287] yielded a Ki of over 0.4 µM.
`CC(C)(C)[C@H](NC(=O)c1nn(Cc2ccc(F)cc2)c2ccccc12)C(=O)NCC1CN(C(N)=O)C1` [Example 347] gave a Ki of 0.0244 µM.
Work on `CCOC(=O)[C@H]1C[C@@H](NC(=O)[C@@H](NC(=O)c2nn(Cc3ccc(C#N)cc3F)c3ccccc23)C(C)(C)C)C1` [Example 382] yielded a Ki of 0.238 µM.
With `CC(C)(C)[C@H](NC(=O)c1nn(Cc2ccc(C(F)(F)F)cc2)c2ccccc12)C(=O)NCCNS(=O)(=O)c1ccc(C#N)cc1` [Example 267] the Ki was 0.078 µM.
